The subject of one assay is PAI-1. The experiment in a line: Western blot of PAI-1 in primary culture of human coronary artery smooth muscle cells. Type of assay: cell-based.
The conditions of assay [1]: cited from earlier work.
The next assay concerns 24(OH)ase. The experiment in a line: effect of drugs on the expression of 24(OH)ase. Type of assay: cell-based. The procedure:
Two observations may be noted in these studies: (1) 100% inhibition of growth was never achieved even at 1 μM of any of the test compound. Confocal microscopy studies confirm that, although these drugs are potent in inducing the translocation of VDR from cytoplasm to nucleus, not all cells respond to VDRAs even after 2 h of exposure, which may explain the <100% inhibition.

The next assay concerns renin mRNA expression. The experiment in a line: Northern blot analysis of renin mRNA expression in As4.1-hVDR cells. Type of assay: cell-based. The procedure:
(§1) Using an in vitro system, an examination was carried out in order to determine the ability of paricalcitol to suppress renin expression. […] This inhibitory activity is confirmed by renin promoter-luciferase assays, which examine the activity of paricalcitol to suppress renin gene transcription.

The next assay relates to renin gene promotor. Kind of assay: renin promoter-luciferase assay. Type of assay: cell-based. Particulars: FIG. 2. The procedure:
as §1

On to `C[C@H](/C=C/[C@H](C)C(C)(C)O)[C@H]1CC[C@H]2/C(=C/C=C3C[C@@H](O)C[C@H](O)C3)CCC[C@]12C` [paricalcitol], for which the “potency in reducing the PAI level” value in the assay with PAI-1 is recorded as “equally potent”. Moreover, in assay [1] (CKD patients), the “survival benefit for CKD patients relative to calcitriol” value was “more profound for paricalcitol over calcitriol”. In addition, the “potency in the clinical studies relative to calcitriol” value in assay [1] (clinical studies) was “less potent than calcitriol”. For the same compound, the “potency on stimulating the expression of 24(OH)ase relative to calcitriol” value with 24(OH)ase is listed as “less potent than calcitriol”. Also, in the assay with renin mRNA expression (FIG. 1A and B), the “renin-inhibiting activity relative to calcitriol” value was “a bit more potent than calcitriol”. Also, the “inhibition of renin mRNA expression” value in the assay with renin mRNA expression (Northern blot, FIG. 1) is reported as “dose-dependently inhibits renin mRNA expression”. Besides, the “suppressing the activity of the renin gene promotor, relative to calcitriol” value with renin gene promotor is “as least as potent as calcitriol”.

With `C=C1/C(=C\C=C2/CCC[C@]3(C)[C@@H]([C@H](C)CCCC(C)(C)O)CC[C@@H]23)C[C@@H](O)C[C@@H]1O` [calcitriol], the “potency in reducing the PAI level” value with PAI-1 is “equally potent”.

The values above are taken from patent publication US20050074488A1, “Use of vitamin Ds to down regulate the renin-angiotensin-aldosterone system” (priority 2003, published 2005).
